PMC7690448, “Generation of a hTERT-Immortalized Human Sertoli Cell Model to Study Transporter Dynamics at the Blood-Testis Barrier” (Pharmaceutics, 2020)

Target: T1, ENT1 (Homo sapiens, UniProt Q99808)
T1 construct: gene SLC29A1
T1 sequence (Q99808 2-456): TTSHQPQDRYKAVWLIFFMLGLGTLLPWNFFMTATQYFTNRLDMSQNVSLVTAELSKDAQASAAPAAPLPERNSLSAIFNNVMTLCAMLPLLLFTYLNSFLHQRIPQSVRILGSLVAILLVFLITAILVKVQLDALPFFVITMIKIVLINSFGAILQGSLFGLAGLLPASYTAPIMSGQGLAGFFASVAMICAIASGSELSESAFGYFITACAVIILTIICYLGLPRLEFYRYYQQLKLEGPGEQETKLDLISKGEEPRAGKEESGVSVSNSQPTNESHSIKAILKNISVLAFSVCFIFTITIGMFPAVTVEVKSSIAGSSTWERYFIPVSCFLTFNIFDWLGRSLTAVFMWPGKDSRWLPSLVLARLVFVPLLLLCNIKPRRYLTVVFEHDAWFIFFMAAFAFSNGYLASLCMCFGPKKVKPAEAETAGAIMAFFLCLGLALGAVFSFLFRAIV
Experiment: NBMPR-sensitive [3H] uridine uptake in primary human Sertoli cells and hT-SerCs (endogenous ENT1)
Format: cell-based

O=c1ccn([C@@H]2O[C@H](CO)[C@@H](O)[C@H]2O)c(=O)[nH]1 [uridine]
NBMPR-sensitive [3H] uridine uptake in primary human Sertoli cells and hT-SerCs: These data suggest that uridine uptake into both cells is primarily mediated by ENT1 with minimal contribution by ENT2.
